# Earlier results as cited in article PMC9516332 (Frontiers in Oncology, 2022).
# Like-named read-outs stand apart in the source and are kept apart here.
# Assays:
# Conditions in all cases: cited from earlier work
# [1] = target: T1, panel of 255 wild-type kinases (Homo sapiens, UniProt Q08881)
# T1 sequence (Q08881 1-620): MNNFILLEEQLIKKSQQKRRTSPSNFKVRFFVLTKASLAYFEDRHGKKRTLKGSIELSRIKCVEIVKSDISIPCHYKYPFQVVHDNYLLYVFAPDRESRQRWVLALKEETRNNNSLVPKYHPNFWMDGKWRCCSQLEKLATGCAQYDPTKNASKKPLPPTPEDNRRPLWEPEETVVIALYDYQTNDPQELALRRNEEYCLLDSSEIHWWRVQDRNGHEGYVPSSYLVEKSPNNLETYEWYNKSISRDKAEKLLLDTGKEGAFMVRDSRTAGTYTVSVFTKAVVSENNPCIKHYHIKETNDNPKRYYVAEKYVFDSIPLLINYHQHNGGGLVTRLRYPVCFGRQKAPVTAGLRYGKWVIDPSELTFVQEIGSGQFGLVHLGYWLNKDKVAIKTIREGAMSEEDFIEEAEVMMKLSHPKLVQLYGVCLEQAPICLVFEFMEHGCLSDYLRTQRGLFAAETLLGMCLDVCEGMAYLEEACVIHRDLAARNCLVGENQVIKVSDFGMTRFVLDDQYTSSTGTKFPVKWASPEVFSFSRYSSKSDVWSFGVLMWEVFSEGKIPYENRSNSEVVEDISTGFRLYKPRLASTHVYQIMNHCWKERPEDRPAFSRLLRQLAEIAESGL
# [2] = target: panel of 255 wild-type kinases (Homo sapiens, UniProt P09619)
# [3] = target: panel of 255 wild-type kinases (Homo sapiens, UniProt P50750)
# [4] = target: T2, panel of 255 wild-type kinases (Homo sapiens, UniProt P30530)
# T2 sequence (P30530 26-894): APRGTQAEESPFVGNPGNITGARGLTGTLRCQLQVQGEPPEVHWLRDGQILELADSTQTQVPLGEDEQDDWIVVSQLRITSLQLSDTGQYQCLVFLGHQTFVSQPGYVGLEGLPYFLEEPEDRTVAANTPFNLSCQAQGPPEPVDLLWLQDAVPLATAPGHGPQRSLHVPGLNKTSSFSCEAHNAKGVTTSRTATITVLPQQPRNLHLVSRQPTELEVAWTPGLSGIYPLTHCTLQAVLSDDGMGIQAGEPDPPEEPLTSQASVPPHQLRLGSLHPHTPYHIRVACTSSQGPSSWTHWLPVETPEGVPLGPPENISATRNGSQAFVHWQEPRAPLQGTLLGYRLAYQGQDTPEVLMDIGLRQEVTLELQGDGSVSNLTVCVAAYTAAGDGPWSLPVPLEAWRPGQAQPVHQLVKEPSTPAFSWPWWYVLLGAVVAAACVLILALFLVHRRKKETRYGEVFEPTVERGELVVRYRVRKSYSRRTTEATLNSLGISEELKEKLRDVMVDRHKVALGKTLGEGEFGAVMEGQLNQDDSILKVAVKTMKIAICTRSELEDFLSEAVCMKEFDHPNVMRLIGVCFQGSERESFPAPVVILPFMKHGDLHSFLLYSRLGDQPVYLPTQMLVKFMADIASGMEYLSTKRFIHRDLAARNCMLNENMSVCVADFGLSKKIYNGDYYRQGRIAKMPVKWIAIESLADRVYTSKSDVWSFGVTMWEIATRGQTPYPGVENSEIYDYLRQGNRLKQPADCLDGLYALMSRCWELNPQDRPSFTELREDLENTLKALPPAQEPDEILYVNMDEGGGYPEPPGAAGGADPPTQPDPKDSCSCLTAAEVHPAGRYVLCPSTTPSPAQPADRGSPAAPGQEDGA
# [5] = target: T3, panel of 255 wild-type kinases (Homo sapiens, UniProt P51955)
# T3 sequence (P51955 1-445): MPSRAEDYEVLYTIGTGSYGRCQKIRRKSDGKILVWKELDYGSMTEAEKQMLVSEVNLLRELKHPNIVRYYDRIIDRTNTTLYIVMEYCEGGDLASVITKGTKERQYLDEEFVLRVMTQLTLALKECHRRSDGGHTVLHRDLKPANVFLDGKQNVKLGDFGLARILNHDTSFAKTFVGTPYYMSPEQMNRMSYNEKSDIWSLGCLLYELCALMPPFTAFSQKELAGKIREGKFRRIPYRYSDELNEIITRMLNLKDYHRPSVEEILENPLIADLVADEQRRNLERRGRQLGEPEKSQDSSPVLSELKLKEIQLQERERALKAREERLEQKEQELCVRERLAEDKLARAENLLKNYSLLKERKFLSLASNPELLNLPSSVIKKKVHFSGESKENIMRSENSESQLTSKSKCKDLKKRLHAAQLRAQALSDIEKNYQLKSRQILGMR
# [6] = target: T4, panel of 255 wild-type kinases (Homo sapiens, UniProt Q16566)
# T4 sequence (Q16566 1-473): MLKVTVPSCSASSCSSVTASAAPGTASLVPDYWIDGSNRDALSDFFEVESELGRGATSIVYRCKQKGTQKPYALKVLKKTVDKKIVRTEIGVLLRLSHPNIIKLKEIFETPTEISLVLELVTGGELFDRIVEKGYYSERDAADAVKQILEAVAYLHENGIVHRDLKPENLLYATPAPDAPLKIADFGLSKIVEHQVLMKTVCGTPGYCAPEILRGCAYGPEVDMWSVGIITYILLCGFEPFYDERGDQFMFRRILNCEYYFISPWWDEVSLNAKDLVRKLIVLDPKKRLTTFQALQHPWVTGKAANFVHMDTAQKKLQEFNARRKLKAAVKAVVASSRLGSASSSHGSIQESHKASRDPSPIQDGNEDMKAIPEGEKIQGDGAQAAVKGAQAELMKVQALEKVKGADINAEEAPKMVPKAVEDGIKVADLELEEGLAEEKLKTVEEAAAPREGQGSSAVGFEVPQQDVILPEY
# [7] = kinase ITK, 1 µmol/L single concentration, ref DOI: 10.1158/1535-7163.MCT-18-0877
# [8] = kinase PDGFRβ, 1 µmol/L single concentration, ref DOI: 10.1158/1535-7163.MCT-18-0877
# [9] = CDK9/CycT1 kinase assay, 1 µmol/L single concentration, ref DOI: 10.1158/1535-7163.MCT-18-0877
# [10] = AXL kinase assay, 1 µmol/L single concentration, ref DOI: 10.1158/1535-7163.MCT-18-0877
# [11] = NEK2, 1 µmol/L single concentration, ref DOI: 10.1158/1535-7163.MCT-18-0877
# [12] = CaMK4 kinase assay, 1 µmol/L single concentration, ref DOI: 10.1158/1535-7163.MCT-18-0877
# [13] = kinase ITK, 1 µmol/L single concentration, ref DOI: 10.1371/journal.pone.0092146
# [14] = kinase PDGFRβ, 1 µmol/L single concentration, ref DOI: 10.1371/journal.pone.0092146
# [15] = CDK9/CycT1 kinase assay, 1 µmol/L single concentration, ref DOI: 10.1371/journal.pone.0092146
# [16] = NEK2, 1 µmol/L single concentration, ref DOI: 10.1371/journal.pone.0092146
# [17] = AXL kinase assay, 1 µmol/L single concentration, ref DOI: 10.1371/journal.pone.0092146
# [18] = CaMK4 kinase assay, 1 µmol/L single concentration, ref DOI: 10.1371/journal.pone.0092146
SMILES,"%-inhibition at 1 µmol/L, ITK [1, 7]","%-inhibition at 1 µmol/L, PDGFRβ [2, 8]","%-inhibition CDK9/CycT1 [3, 9]","%-inhibition AXL [4, 10]","%-inhibition, NEK2 [5, 11]","%-inhibition CaMK4 [6, 12]","%-inhibition at 1 µmol/L, ITK [1, 13]",other results
CC#CC(=O)N1CCC[C@H]1c1nc(-c2ccc(C(=O)Nc3ccccn3)cc2)c2c(N)nccn12 [acalabrutinib],0.871%,5.36%,15%,-0.457%,-6.35%,-8.42%,,
CCc1cc2c(cc1N1CCC(N3CCOCC3)CC1)C(C)(C)c1[nH]c3cc(C#N)ccc3c1C2=O [alectinib],,26%,-0.0188%,59%,3.37%,-4%,,
COc1cc(N2CCC(N3CCN(C)CC3)CC2)ccc1Nc1ncc(Cl)c(Nc2ccccc2P(C)(C)=O)n1 [brigatinib],,,,,,,,"%-inhibition at 1 µmol/L, ITK [1]: 95%; %-inhibition at 1 µmol/L, PDGFRβ [2]: 94%; %-inhibition CDK9/CycT1 [3]: 5.35%; %-inhibition AXL [4]: 97%; %-inhibition, NEK2 [5]: 5.7%; %-inhibition CaMK4 [6]: 13%"
Cc1cc(Nc2ncc(Cl)c(Nc3ccccc3S(=O)(=O)C(C)C)n2)c(OC(C)C)cc1C1CCNCC1 [ceritinib],11%,55%,0.194%,56%,2%,30%,,
O=C(c1ccc(F)c(F)c1Nc1ccc(I)cc1F)N1CC(O)([C@@H]2CCCCN2)C1 [cobimetinib],4%,2%,1.36%,3%,6.62%,2%,,
C[C@@H](Oc1cc(-c2cnn(C3CCNCC3)c2)cnc1N)c1c(Cl)ccc(F)c1Cl [crizotinib],,,,,,,63%,"%-inhibition at 1 µmol/L, PDGFRβ [2, 14]: 18%; %-inhibition CDK9/CycT1 [3, 15]: 5%; %-inhibition, NEK2 [5, 16]: -2.69%"
CC(C)(C)c1nc(-c2cccc(NS(=O)(=O)c3c(F)cccc3F)c2F)c(-c2ccnc(N)n2)s1 [dabrafenib],,,,,,,49%,"%-inhibition AXL [4, 17]: 30%; %-inhibition CaMK4 [6, 18]: 78%"
C=CC(=O)N1CCC[C@@H](n2nc(-c3ccc(Oc4ccccc4)cc3)c3c(N)ncnc32)C1 [ibrutinib],93%,55%,,9%,6.64%,3%,,
CO[C@@H]1[C@H](N(C)C(=O)c2ccccc2)C[C@H]2O[C@]1(C)n1c3ccccc3c3c4c(c5c6ccccc6n2c5c31)C(=O)NC4 [midostaurin],73%,100%,49%,87%,0.207%,3.79%,,
C=CC(=O)Nc1cc(Nc2nccc(-c3cn(C)c4ccccc34)n2)c(OC)cc1N(C)CCN(C)C [osimertinib],62%,87%,0.721%,43%,8%,2.5%,,
CC(=O)Nc1cccc(-n2c(=O)n(C3CC3)c(=O)c3c(Nc4ccc(I)cc4F)n(C)c(=O)c(C)c32)c1 [trametinib],,,,,,,-7.56%,"%-inhibition at 1 µmol/L, PDGFRβ [2, 14]: 3.44%; %-inhibition CDK9/CycT1 [3, 15]: -2.31%; %-inhibition AXL [4, 17]: -1.12%; %-inhibition, NEK2 [5, 16]: 2.76%; %-inhibition CaMK4 [6, 18]: -5.45%"
CCCS(=O)(=O)Nc1ccc(F)c(C(=O)c2c[nH]c3ncc(-c4ccc(Cl)cc4)cc23)c1F [vemurafenib],,,,,,,3%,"%-inhibition at 1 µmol/L, PDGFRβ [2, 14]: 33%; %-inhibition CDK9/CycT1 [3, 15]: 1.33%; %-inhibition AXL [4, 17]: 20%; %-inhibition, NEK2 [5, 16]: -1%; %-inhibition CaMK4 [6, 18]: -2.38%"
